Measured values as given in the supplement of paper PMC11451515.

Test system: NOMO1
Test: cell viability relative to DMSO control; higher = less cytotoxic
Conditions: 48 h
How it was run: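 NOMO1 or SEM cells were plated at 500 cells/well and P12-Ichikawa cells at 1000 cells/well in 1536-well plates (5 μl), after each leukemia line had been adapted for at least four passages in each medium. Pin dosing delivered library compounds in DMSO at 11 threefold concentrations, 47 μM to 0.79 nM. CellTiter-Glo One luminescence was read after 48 h at 37°C. Viability is reported as a per-plate percentage of DMSO wells, with cell-free wells as background.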

[1] = HPLM + 10% dialyzed FBS, 0.000781 µM
[2] = HPLM + 10% dialyzed FBS, 0.00234 µM
[3] = HPLM + 10% dialyzed FBS, 0.00702 µM
[4] = HPLM + 10% dialyzed FBS, 0.0211 µM
[5] = HPLM + 10% dialyzed FBS, 0.0632 µM
[6] = HPLM + 10% dialyzed FBS, 0.19 µM
[7] = HPLM + 10% dialyzed FBS, 0.569 µM
[8] = HPLM + 10% dialyzed FBS, 1.71 µM
[9] = HPLM + 10% dialyzed FBS, 5.12 µM
[10] = HPLM + 10% dialyzed FBS, 15.4 µM
[11] = HPLM + 10% dialyzed FBS, 46.1 µM
[12] = RPMI 5 mM glucose + 10% FBS, 0.000781 µM
[13] = RPMI 5 mM glucose + 10% FBS, 0.00234 µM
[14] = RPMI 5 mM glucose + 10% FBS, 0.00702 µM
[15] = RPMI 5 mM glucose + 10% FBS, 0.0211 µM
[16] = RPMI 5 mM glucose + 10% FBS, 0.0632 µM
[17] = RPMI 5 mM glucose + 10% FBS, 0.19 µM
[18] = RPMI 5 mM glucose + 10% FBS, 0.569 µM
[19] = RPMI 5 mM glucose + 10% FBS, 1.71 µM
[20] = RPMI 5 mM glucose + 10% FBS, 5.12 µM
[21] = RPMI 5 mM glucose + 10% FBS, 15.4 µM
[22] = RPMI 5 mM glucose + 10% FBS, 46.1 µM
[23] = RPMI 5 mM glucose + 10% dialyzed FBS, 0.000781 µM
[24] = RPMI 5 mM glucose + 10% dialyzed FBS, 0.00234 µM
[25] = RPMI 5 mM glucose + 10% dialyzed FBS, 0.00702 µM
[26] = RPMI 5 mM glucose + 10% dialyzed FBS, 0.0211 µM
[27] = RPMI 5 mM glucose + 10% dialyzed FBS, 0.0632 µM
[28] = RPMI 5 mM glucose + 10% dialyzed FBS, 0.19 µM
[29] = RPMI 5 mM glucose + 10% dialyzed FBS, 0.569 µM
[30] = RPMI 5 mM glucose + 10% dialyzed FBS, 1.71 µM
[31] = RPMI 5 mM glucose + 10% dialyzed FBS, 5.12 µM
[32] = RPMI 5 mM glucose + 10% dialyzed FBS, 15.4 µM
[33] = RPMI 5 mM glucose + 10% dialyzed FBS, 46.1 µM

Structure (SMILES) | cell viability [1] | cell viability [2] | cell viability [3] | cell viability [4] | cell viability [5] | cell viability [6] | cell viability [7] | cell viability [8] | cell viability [9] | cell viability [10] | cell viability [11] | cell viability [12] | cell viability [13] | cell viability [14] | cell viability [15] | cell viability [16] | cell viability [17] | cell viability [18] | cell viability [19] | cell viability [20] | cell viability [21] | cell viability [22] | cell viability [23] | cell viability [24] | cell viability [25] | cell viability [26] | cell viability [27] | cell viability [28] | cell viability [29] | cell viability [30] | cell viability [31] | cell viability [32] | cell viability [33]
CN[S+](=O)([O-])Cc1ccc2[nH]cc(CCN(C)C)c2c1 | 116% | 124% | 118% | 124% | 130% | 130% | 148% | 136% | 128% | 135% | 122% | 106% | 124% | 110% | 118% | 110% | 120% | 117% | 109% | 129% | 139% | 111% | 113% | 118% | 114% | 122% | 118% | 123% | 122% | 120% | 118% | 129% | 129%
CN1[C@@H]2CC[C@H]1CC(OC(=O)c1c[nH]c3ccccc13)C2 (stereo partly drawn) |  |  |  |  |  |  |  |  |  |  |  | 115% | 125% | 120% | 114% | 129% | 112% | 106% | 117% | 124% | 114% | 99.3% | 119% | 127% | 119% | 107% | 109% | 115% | 113% | 118% | 119% | 104% | 94.9%
OC(=O)C1=CC=C(NC2=NC3=C(C\N=C(/C4=CC(=CC=C34)Cl)C5=C(F)C=CC=C5F)C=N2)C=C1 | 87.2% | 96.6% | 104% | 122% | 97.9% | 103% | 87.6% | 45.2% | 44% | 59.1% | 72% | 81.9% | 96.8% | 80% | 91.3% | 90.4% | 79.9% | 82.3% | 32.8% | 37.8% | 56.4% | 56.4% | 93.2% | 95.7% | 89.2% | 94.1% | 89.8% | 97.8% | 77.3% | 35% | 38.8% | 55.9% | 61.4%
OC1=CC=C(C=C1)\C2=C\OC3=C(C=CC(=C3)O)C2=O | 97.3% | 92.8% | 102% | 119% | 118% | 99.6% | 105% | 106% | 104% | 93.9% | 99.6% | 93.1% | 91.6% | 89% | 93.4% | 119% | 96.2% | 92.4% | 86.8% | 103% | 100% | 94.2% | 98.8% | 108% | 84.2% | 107% | 112% | 96.1% | 105% | 96.6% | 102% | 89% | 94.5%
Cc1ccccc1N1C(=O)c2cc([S+](N)(=O)[O-])c(Cl)cc2NC1C (stereo not drawn) | 123% | 109% | 121% | 117% | 106% | 120% | 110% | 113% | 37.9% | 82.7% | 123% | 131% | 113% | 124% | 116% | 114% | 118% | 120% | 122% | 28.1% | 94.5% | 107% | 114% | 128% | 124% | 130% | 128% | 119% | 116% | 119% | 35.6% | 77.8% | 109%
CCCCn1c(=O)n(Cc2ccccc2F)c(=O)c2nc(Cc3ccc(NC(C)=O)cc3)[nH]c21 | 97.6% | 155% | 75.7% | 24.9% | 52.4% | 77.6% | 86% | 76.5% | 78.6% | 68.6% | 71.2% | 82.3% | 82.9% | 78.1% | 79.5% | 82.5% | 77.8% | 83.9% | 82.4% | 79.5% | 86.7% | 76.9% | 107% | 108% | 106% | 104% | 125% | 59.5% | 57.7% | 89.6% | 69.4% | 63.8% | 68.8%
CN1[C@@H]2CC(OC(=O)[C@@H](CO)c3ccccc3)C[C@H]1[C@H]1O[C@H]12 (stereo partly drawn) | 94.8% | 120% | 108% | 124% | 103% | 104% | 106% | 95.8% | 93.8% | 92.3% | 121% | 87.3% | 86.7% | 101% | 85.5% | 90.3% | 85.2% | 86.3% | 93.4% | 82.9% | 81.4% | 81.3% | 80.4% | 95.5% | 98.8% | 88.5% | 102% | 103% | 90.9% | 99.4% | 88.2% | 95.4% | 89.8%
COC1=C(N2CCNC(C)C2)C(=CC3=C1N(\C=C(C(O)=O)/C3=O)C4CC4)F (stereo not drawn) | 89.4% | 82.7% | 103% | 115% | 105% | 123% | 103% | 117% | 95.2% | 92.8% | 77.2% | 100% | 87.7% | 88.6% | 99.5% | 96% | 96.8% | 96.6% | 104% | 20.3% | 111% | 103% | 97.6% | 86.9% | 98.2% | 94.3% | 100% | 110% | 94% | 99.3% | 74.2% | 99.1% | 95.8%
[NH2][Pt]1([NH2])[O]CC(=O)[O]1 | 96.9% | 109% | 98% | 101% | 96% | 108% | 97.8% | 106% | 85.9% | 91.3% | 88.3% | 94.5% | 83% | 99.1% | 85.2% | 82.4% | 93.8% | 98.7% | 92.9% | 93.8% | 80.5% | 84.3% | 92.7% | 86.9% | 90.7% | 98.1% | 93.2% | 89.1% | 87.8% | 92.5% | 83.9% | 77.8% | 104%
FC(F)(F)c1ccc(/C=C/c2nc(COc3ccc(CCCCn4ccnn4)cc3)co2)cc1 | 127% | 125% | 122% | 127% | 120% | 104% | 107% | 79.4% | 27.7% | 25.2% | 22.6% | 125% | 122% | 128% | 137% | 134% | 127% | 126% | 92.1% | 20.5% | 15.3% | 13.1% | 122% | 143% | 122% | 124% | 124% | 116% | 130% | 128% | 27.8% | 24.1% | 19.9%
CC(C)C(C)/C=C/C(C)C1CCC2C3=CC=C4CC(O)CCC4(C)C3CCC21C (stereo not drawn) | 104% | 101% | 115% | 111% | 104% | 99.8% | 112% | 106% | 111% | 110% | 94.8% | 86.5% | 97.2% | 90.6% | 88.4% | 96.7% | 88.6% | 89.9% | 92% | 85.1% | 83% | 82.7% | 99.1% | 88.7% | 92.4% | 89.8% | 99.7% | 104% | 94.6% | 97.7% | 86.4% | 81.6% | 90.4%
ClC1=C(N\C2=N\CCN2)C3=NSN=C3C=C1 |  |  |  |  |  |  |  |  |  |  |  | 108% | 119% | 120% | 123% | 112% | 118% | 119% | 135% | 117% | 125% | 144% | 107% | 127% | 114% | 132% | 133% | 128% | 140% | 143% | 161% | 153% | 140%
CC(C)[C@@H](N(CCCN)C(=O)C1=CC=C(C)C=C1)C/2=N/C3=CC(=CC=C3C(=O)N2CC4=CC=CC=C4)Cl | 88.4% | 25.4% | 29.7% | 21.4% | 20.8% | 27.1% | 28% | 24.4% | 20% | 15.8% | 11.4% | 81.9% | 16% | 16.1% | 17.8% | 16.9% | 15.3% | 15.3% | 14.3% | 9.97% | 9.55% | 7.35% | 78.1% | 24% | 24.8% | 21.9% | 22.9% | 24.4% | 18.7% | 15.8% | 11.7% | 16.3% | 11.1%
CC(=O)O[C@H]1C(=O)[C@]2(C)[C@@H](O)C[C@H]3OC[C@@]3(OC(C)=O)C2[C@H](OC(=O)C4=CC=CC=C4)[C@]5(O)C[C@H](OC(=O)[C@H](O)[C@@H](NC(=O)C6=CC=CC=C6)C7=CC=CC=C7)\C(=C1/C5(C)C)C (stereo partly drawn) | 74.6% | 34.7% | 39.5% | 41.3% | 39.6% | 31.7% | 33.1% | 36.6% | 35.5% | 29.1% | 33.1% | 124% | 27.4% | 23% | 25.4% | 25.4% | 22.5% | 23.2% | 23.9% | 23.1% | 23.2% | 19.6% | 106% | 32.5% | 25.2% | 31.5% | 24.8% | 26% | 29.7% | 31.4% | 29% | 27.1% | 20.3%
CC1(C)Cc2c(-c3ccccc3)c(-c3ccc(Cl)cc3)c(CC(=O)O)n2C1 | 115% | 106% | 130% | 131% | 111% | 120% | 128% | 106% | 108% | 99.5% | 90.6% | 102% | 123% | 118% | 124% | 119% | 115% | 112% | 101% | 99% | 111% | 96.8% | 110% | 114% | 105% | 115% | 117% | 113% | 114% | 106% | 105% | 91.8% | 89.2%
